In PubChem BioAssay (NCI):
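Growth conditions: 96-well plates. Treatment: test compound, 48 hours, 5 concentrations. Analysis: linear interpolation between bracketing concentrations; unreached endpoints set to highest concentration. Abbreviation: GI50, concentration required for 50% inhibition of growth. TGI: total growth inhibition.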

Key:
Experiment in all cases: NCI tumour cell line growth inhibition, 48 h
[1] = tested on: 786-0 renal
[2] = tested on: A498 renal
[3] = tested on: A549 NSCLC
[4] = tested on: ACHN renal
[5] = tested on: BT-549 breast
[6] = tested on: CAKI-1 renal
[7] = tested on: CCRF-CEM leukemia
[8] = tested on: COLO 205 colon
[9] = tested on: DU-145 prostate
[10] = tested on: EKVX NSCLC
[11] = tested on: HCC-2998 colon
[12] = tested on: HCT-116 colon
[13] = tested on: HCT-15 colon
[14] = tested on: HL-60(TB) leukemia
[15] = tested on: HOP-62 NSCLC
[16] = tested on: HOP-92 NSCLC
[17] = tested on: HT29 colon
[18] = tested on: IGROV1 ovarian
[19] = tested on: K-562 leukemia
[20] = tested on: KM12 colon
[21] = tested on: M14 melanoma
[22] = tested on: MALME-3M melanoma
[23] = tested on: MCF7 breast
[24] = tested on: MDA-MB-435
[25] = tested on: MDA-MB-468 breast
[26] = tested on: MOLT-4 leukemia
[27] = tested on: NCI-H226 lung
[28] = tested on: NCI-H23 lung
[29] = tested on: NCI-H460 lung
[30] = tested on: NCI-H522 lung
[31] = tested on: NCI/ADR-RES ovarian
[32] = tested on: OVCAR-3 ovarian
[33] = tested on: OVCAR-4 ovarian
[34] = tested on: OVCAR-5 ovarian
[35] = tested on: OVCAR-8 ovarian
[36] = tested on: PC-3 prostate
[37] = tested on: RPMI-8226 leukemia
[38] = tested on: RXF 393 renal
[39] = tested on: SF-268 CNS
[40] = tested on: SF-295 CNS
[41] = tested on: SF-539 CNS
[42] = tested on: SK-MEL-2 melanoma
[43] = tested on: SK-MEL-28 melanoma
[44] = tested on: SK-MEL-5 melanoma
[45] = tested on: SK-OV-3 ovarian
[46] = tested on: SN12C renal
[47] = tested on: SNB-19 CNS
[48] = tested on: SNB-75 CNS
[49] = tested on: SR leukemia
[50] = tested on: T-47D breast
[51] = tested on: TK-10 renal
[52] = tested on: U251 CNS
[53] = tested on: UACC-257 melanoma
[54] = tested on: UACC-62 melanoma
[55] = tested on: UO-31 renal

COc1ccc2[nH]c(=O)c(CSc3nccc(-c4ccc(OC)c(OC)c4)n3)cc2c1
GI50 [1]: 15.4 µM
TGI [1]: 33.8 µM
GI50 [2]: 14.7 µM
TGI [2]: 37.5 µM
GI50 [3]: 20.9 µM
TGI [3]: 91.5 µM
GI50 [4]: 12.1 µM
TGI [4]: 24.4 µM
GI50 [5]: 12.5 µM
TGI [5]: 37.1 µM
GI50 [6]: 11 µM
TGI [6]: 32.8 µM
GI50 [7]: 10.5 µM
TGI [7]: > 100 µM
GI50 [8]: 32.1 µM
TGI [8]: > 100 µM
GI50 [9]: 14.3 µM
TGI [9]: 32.4 µM
GI50 [10]: 12.9 µM
TGI [10]: 44 µM
GI50 [11]: 18.1 µM
TGI [11]: 57.6 µM
GI50 [12]: 15.7 µM
TGI [12]: 49.2 µM
GI50 [13]: 15.4 µM
TGI [13]: 46.9 µM
GI50 [14]: 35.2 µM
TGI [14]: > 100 µM
GI50 [15]: 18.4 µM
TGI [15]: 51.3 µM
GI50 [16]: 2.01 µM
TGI [16]: 8.63 µM
GI50 [17]: 17.7 µM
TGI [17]: 38.5 µM
GI50 [18]: 17.7 µM
TGI [18]: 41.6 µM
GI50 [19]: 7.33 µM
TGI [19]: 29.6 µM
GI50 [20]: 21.8 µM
TGI [20]: 62.1 µM
GI50 [21]: 25.5 µM
TGI [21]: 74.4 µM
GI50 [22]: 19.5 µM
TGI [22]: 40 µM
GI50 [23]: 18.7 µM
TGI [23]: 43 µM
GI50 [24]: 23.7 µM
TGI [24]: 73.8 µM
GI50 [25]: 5.84 µM
TGI [25]: 32.2 µM
GI50 [26]: 9.07 µM
TGI [26]: 42.9 µM
GI50 [27]: 12.7 µM
TGI [27]: 40.8 µM
GI50 [28]: 17.6 µM
TGI [28]: 45.4 µM
GI50 [29]: 17.4 µM
TGI [29]: 40.3 µM
GI50 [30]: 16.4 µM
TGI [30]: 37.3 µM
GI50 [31]: 14.2 µM
TGI [31]: 41.2 µM
GI50 [32]: 15.2 µM
TGI [32]: 37.3 µM
GI50 [33]: 16.5 µM
TGI [33]: 78.2 µM
GI50 [34]: 19.1 µM
TGI [34]: 53.5 µM
GI50 [35]: 21 µM
TGI [35]: > 100 µM
GI50 [36]: 11.9 µM
TGI [36]: 25.7 µM
GI50 [37]: 6.26 µM
TGI [37]: 88 µM
GI50 [38]: 6.08 µM
TGI [38]: 40.1 µM
GI50 [39]: 14.7 µM
TGI [39]: 47.8 µM
GI50 [40]: 17.2 µM
TGI [40]: 43 µM
GI50 [41]: 12.3 µM
TGI [41]: 25.7 µM
GI50 [42]: 15.1 µM
TGI [42]: 51.3 µM
GI50 [43]: 20.3 µM
TGI [43]: 41.5 µM
GI50 [44]: 9.51 µM
TGI [44]: 37.4 µM
GI50 [45]: 25.5 µM
TGI [45]: 60.7 µM
GI50 [46]: 11.2 µM
TGI [46]: 42.7 µM
GI50 [47]: 14.5 µM
TGI [47]: 36 µM
GI50 [48]: 3.43 µM
TGI [48]: 25.9 µM
GI50 [49]: 15.9 µM
TGI [49]: > 100 µM
GI50 [50]: 10.9 µM
TGI [50]: 67.4 µM
GI50 [51]: 13.3 µM
TGI [51]: 33.7 µM
GI50 [52]: 22.4 µM
TGI [52]: > 100 µM
GI50 [53]: 28.9 µM
TGI [53]: 99.9 µM
GI50 [54]: 15 µM
TGI [54]: 35.3 µM
GI50 [55]: 10.4 µM
TGI [55]: 23.7 µM
